The nature of data set [1]: Induction of ascorbic acid oxidation preincubated for 3 mins in presence of Cu2++. The class given is physicochemical. Also on record: concentration or dose not given beside the values. The settings on record: 0.05 h.
Data set [2] is described as follows: Induction of ascorbic acid oxidation preincubated for 30 mins in presence of Cu2++. The class given is physicochemical. Also on record: concentration or dose not given beside the values. The conditions noted are these: 0.5 h.
Data set [3] can be described thus: Induction of ascorbic acid oxidation preincubated for 300 mins in presence of Cu2++. Also on record: concentration or dose not given beside the values. The class given is physicochemical. The conditions noted are these: 5 h.
The nature of data set [4]: Antioxidant activity assessed as ABTS radical scavenging activity after 30 mins in absence of Cu2+. It counts as functional.
Data set [5] in a line: Antioxidant activity assessed as reducing capacity of DTNB at 20 uM after 30 mins in presence of Cu2++. The class given is functional. Also on record: scale not given: the % may be the effect or the level left.
Data set [6] can be described thus: Antioxidant activity assessed as ABTS radical scavenging activity at 4 uM after 3 mins in presence of Cu2+. It counts as functional.
Data set [7] relates to Radical scavenging activity. The data set is described as follows: Antioxidant activity assessed as DPPH radical scavenging activity after 40 mins in absence of Cu2+. It counts as functional.
The nature of data set [8]: Effect on CU2+-mediated superoxide-dependent lucigenin reduction by chemiluminescence assay at 10 to 30 uM. The class given is physicochemical.
The test system of data set [9] is Radical scavenging activity. The data set is described as follows: Antioxidant activity assessed as DPPH radical scavenging activity at 36 uM after 3 mins in presence of Cu2++. It counts as functional.
Data set [10] in a line: Antioxidant activity assessed as ABTS radical scavenging activity at 4 uM after 30 mins in presence of Cu2++. The class given is functional.
A short description of data set [11]: Antioxidant activity assessed as reducing capacity of Iodine solution at 0.25mM after 30 mins in presence of Cu2++. It counts as functional. Further details: scale not given: the % may be the effect or the level left.
A short description of data set [12]: Induction of ascorbic acid oxidation preincubated for 60 mins in presence of Cu2++. The class given is physicochemical. Further details: concentration or dose not given beside the values. The conditions noted are these: 1 h.
The nature of data set [13]: Effect on CU2+-mediated superoxide-dependent cytochrome c reduction at 10 to 30 uM. The class given is physicochemical.
For data set [14], the system named is Radical scavenging activity. The data set is described as follows: Antioxidant activity assessed as DPPH radical scavenging activity at 36 uM after 30 mins in presence of Cu2++. It counts as functional. For orientation: The DPPH test is a chemical assay of radical scavenging.
Data set [15] in a line: Antioxidant activity assessed as reducing capacity of Iodine solution at 0.25 mM after 60 mins in presence of Cu2++. The class given is functional.
A short description of data set [16]: Antioxidant activity assessed as reducing capacity of DTNB at 20 uM after 60 mins in presence of Cu2++. The class given is functional.
Data set [17] can be described thus: Antioxidant activity assessed as reducing capacity of Iodine solution at 0.25 mM after 120 mins in presence of Cu2++. It counts as functional.

Each structure is given as a SMILES string. Activity calls are given as the source filed them. The calls are words filed in the database; no cut-off is given here.

For `N[C@@H](CCS)C(=O)O` [L-HOMOCYSTEINE], the Activity in [1] was 81.1%; in [2] it was 84.1%; in data set [3] it was 85.3%; in data set [4] it was “Dose-dependent effect”; in data set [5] it was 40%; in [7] it was “Dose-dependent effect”. Besides, the Activity entry in data set [8] is “Active”; in data set [10], 31%; in data set [11], 30%; in data set [12], 86.1%; in data set [13] it was “Active”; in data set [14] it was 72%. Also, the result in [6] and in data set [9] was Active.

`N[C@@H](CCC(=O)N[C@@H](CS)C(=O)O)C(=O)O`: the Activity was 81.4% in [1]; 87.4% in [2]; 97.6% in data set [3]; “Dose-dependent effect” in [4]; 26% in data set [5]; “Dose-dependent effect” in [7]. Also, the Activity in [10] is 29%; in data set [11], 24%; in [12], 89.6%; in [13] it was “Active”; in data set [14] it was 54%. The outcome in [6] and in data set [9] was Active.

In the case of `N[C@@H](CS)C(=O)O` [CYSTEINE], the Activity in [1] was 74.35%; in data set [2] it was 77.34%; in data set [3], 80.36%; in [4], “Dose-dependent effect”; in [5], 24%; in data set [7], “Dose-dependent effect”. In addition, the Activity in [10] was 44%; in data set [11] it was 23%; in data set [12] it was 80.35%; in [13] it was “Active”; in data set [14], 92%. Besides, the outcome in data set [6] and in data set [9] was Active.

Consider `N[C@@H](CCC(=O)N[C@@H](CS)C(=O)NCC(=O)O)C(=O)O` [GLUTATHIONE], for which the Activity was 81.3% in [1]; 83.2% in data set [2]; 85.4% in data set [3]; “Dose-dependent effect” in [4]; 36% in [5]; “Dose-dependent effect” in [7]. The Activity result in [8] was “Active”; in [10] it was 55%; in [11], 31%; in [12], 84.2%; in data set [13], “Active”; in data set [14], 76%. For the same molecule, the result in [6] and in [9] was Active.

As to `N[C@@H](CS)C(=O)NCC(=O)O`, the result in [15], in [16], in data set [6] and in data set [9] was Active. Besides, the Activity in data set [1] was 79.8%; in [2], 92.28%; in [3], 94.33%; in [4], “Dose-dependent effect”; in [5], 0%; in data set [7], “Dose-dependent effect”. Moreover, the Activity result was “Active” in data set [8]; 33% in [10]; 20% in data set [11]; 94.31% in data set [12]; “Active” in [13]; 88% in data set [14]. In addition, the outcome in data set [17] was inactive.

(Values after ChEMBL document CHEMBL1142539, “Double edge redox-implications for the interaction between endogenous thiols and copper ions: In vitro studies” (Bioorg Med Chem, 2008).)
